Measurements: ChEMBL document CHEMBL1130939, “Alkyl side-chain derivatives of sordaricin as potent antifungal agents against yeast” (Bioorg Med Chem Lett, 1998)
Values after ≈ are worked out from the molar mass of the structure shown.

system: Saccharomyces cerevisiae; assay: Antifungal activity against Saccharomyces cerevisiae (strain YPH98); type: functional, organism-based

Row | SMILES | IC50
1 | CCCCCCCOC[C@]12CC3C(C)CCC3[C@@]3(C=O)CC1C=C(C(C)C)[C@@]23C(=O)O (stereo partly specified) | 300 ng/mL (≈ 697 nM)
2 | CCCCOC[C@]12CC3C(C)CCC3[C@@]3(C=O)CC1C=C(C(C)C)[C@@]23C(=O)O (stereo partly specified) | 0.1 ng/mL (≈ 0.257 nM)
3 | CC(C)COC[C@]12CC3C(C)CCC3[C@@]3(C#N)CC1C=C(C(C)C)[C@@]23C(=O)O (stereo partly specified) | 30 ng/mL (≈ 77.8 nM)
4 | CCCCCCOC[C@]12CC3C(C)CCC3[C@@]3(C=O)CC1C=C(C(C)C)[C@@]23C(=O)O (stereo partly specified) | 15 ng/mL (≈ 36 nM)
5 | CC(C)CCOC[C@]12CC3C(C)CCC3[C@@]3(C#N)CC1C=C(C(C)C)[C@@]23C(=O)O (stereo partly specified) | 0.01 ng/mL (≈ 0.025 nM)
6 | CCCCCOC[C@]12CC3C(C)CCC3[C@@]3(C#N)CC1C=C(C(C)C)[C@@]23C(=O)O (stereo partly specified) | 0.01 ng/mL (≈ 0.025 nM)
7 | CCCCCOC[C@]12CC3C(C)CCC3[C@@]3(C=O)CC1C=C(C(C)C)[C@@]23C(=O)O (stereo partly specified) | 0.01 ng/mL (≈ 0.0248 nM)
8 | CCOC[C@]12CC3C(C)CCC3[C@@]3(C#N)CC1C=C(C(C)C)[C@@]23C(=O)O (stereo partly specified) | 500 ng/mL (≈ 1400 nM)
9 | CCCOC[C@]12CC3C(C)CCC3[C@@]3(C=O)CC1C=C(C(C)C)[C@@]23C(=O)O (stereo partly specified) | 60 ng/mL (≈ 160 nM)
10 | CCCCCCCCCOC[C@]12CC3C(C)CCC3[C@@]3(C#N)CC1C=C(C(C)C)[C@@]23C(=O)O (stereo partly specified) | 1000 ng/mL (≈ 2190 nM)
11 | CCOC[C@]12CC3C(C)CCC3[C@@]3(C=O)CC1C=C(C(C)C)[C@@]23C(=O)O (stereo partly specified) | 60 ng/mL (≈ 166 nM)
12 | CC(C)COC[C@]12CC3C(C)CCC3[C@@]3(C=O)CC1C=C(C(C)C)[C@@]23C(=O)O (stereo partly specified) | 0.1 ng/mL (≈ 0.257 nM)
13 | CCCOC[C@]12CC3C(C)CCC3[C@@]3(C#N)CC1C=C(C(C)C)[C@@]23C(=O)O (stereo partly specified) | 90 ng/mL (≈ 242 nM)
14 | CCCCOC[C@]12CC3C(C)CCC3[C@@]3(C#N)CC1C=C(C(C)C)[C@@]23C(=O)O (stereo partly specified) | 30 ng/mL (≈ 77.8 nM)
15 | COC[C@]12CC3C(C)CCC3[C@@]3(C=O)CC1C=C(C(C)C)[C@@]23C(=O)O (stereo partly specified) | 100 ng/mL (≈ 289 nM)
16 | CCCCCCCOC[C@]12CC3C(C)CCC3[C@@]3(C#N)CC1C=C(C(C)C)[C@@]23C(=O)O (stereo partly specified) | 100 ng/mL (≈ 234 nM)
17 | COC[C@]12CC3C(C)CCC3[C@@]3(C#N)CC1C=C(C(C)C)[C@@]23C(=O)O (stereo partly specified) | 1000 ng/mL (≈ 2910 nM)
18 | CCCCCCCCOC[C@]12CC3C(C)CCC3[C@@]3(C#N)CC1C=C(C(C)C)[C@@]23C(=O)O (stereo partly specified) | 200 ng/mL (≈ 453 nM)
19 | CCCCCCCCCOC[C@]12CC3C(C)CCC3[C@@]3(C=O)CC1C=C(C(C)C)[C@@]23C(=O)O (stereo partly specified) | 50000 ng/mL (≈ 109000 nM)
20 | CCCCCCOC[C@]12CC3C(C)CCC3[C@@]3(C#N)CC1C=C(C(C)C)[C@@]23C(=O)O (stereo partly specified) | 0.3 ng/mL (≈ 0.725 nM)
21 | CC(C)CCOC[C@]12CC3C(C)CCC3[C@@]3(C=O)CC1C=C(C(C)C)[C@@]23C(=O)O (stereo partly specified) | 0.01 ng/mL (≈ 0.0248 nM)
22 | CC(C)C1=CC2C[C@]3(C#N)C4CCC(C)C4C[C@]2(CO)[C@]13C(=O)O (stereo partly specified) | 20000 ng/mL (≈ 60700 nM)
23 | CCCCCCCCOC[C@]12CC3C(C)CCC3[C@@]3(C=O)CC1C=C(C(C)C)[C@@]23C(=O)O (stereo partly specified) | 400 ng/mL (≈ 900 nM)
24 | COC1C(C)OC(OCC23CC4C(C)CCC4[C@@]4(C#N)C[C@@H]2C=C(C(C)C)[C@@]34C(=O)O)C(O)C1O (stereo partly specified) | 2000 ng/mL (≈ 4080 nM)
25 | CC(C)C1=CC2C[C@]3(C=O)C4CCC(C)C4C[C@]2(CO)[C@]13C(=O)O (stereo partly specified) [SORDARICIN] | > 250000 ng/mL
26 | CO[C@H]1[C@@H](O)[C@H](O)[C@H](OC[C@@]23C[C@@H]4[C@H](C)CC[C@H]4[C@@]4(C=O)CC2C=C(C(C)C)[C@@]34C(=O)O)O[C@@H]1C [SORDARIN] | 10000 ng/mL (≈ 20300 nM)
